Measured values published in PubChem BioAssay AID1918993 (Molecular Pharmacology Branch, DTP, NCI, 2023).
Several values for one entry are separate records, joined by “and”; a condition that tells them apart may be missing. Equal entries are not always repeated.

System: 233499-124-R-J3-PDC complex spheroid growth
Test: Anticancer human tumor 233499-124-R-J3-PDC patient-derived colon adenocarcinoma cell line growth inhibition [AhR]
Conditions: for viability, T/C: stronger effect = lower value
Text: Multicellular complex tumor spheroid response to aryl hydrocarbon receptor antagonists in combination with a variety of drugs and investigational agents in selected tumor cell lines
The current study was undertaken to assess response to aryl hydrocarbon receptor antagonists in combination with standard-of-care drugs and investigational agents in solid tumor complex spheroid models. Complex spheroids include a stromal component modeled by human endothelial cells (HUVEC) and fibroblasts modeled by human mesenchymal stem cells (MSCs). The concentration ranges selected for each drug and investigational agent were based upon clinically achievable concentrations if the clinical Cmax of the agent was known.
Compounds. The drugs and investigational agents: BAY 2416964 (NSC825713), GNF351 (NSC835774), CH-223191 (NSC835775), CPI-455 (NSC825282), aza-TdCyd (NSC777586), decitabine (NSC127716), belinostat (NSC758774), entinostat (NSC756642), pevonedistat (NSC761192), tazemetostat (NSC777109), talazoparib (NSC765396), olaparib (NSC753686), selinexor (NSC780203), nedisertib (M3814, NSC802822), bortezomib (NSC756655), venetoclax (NSC766270), doxorubicin (NSC123127), elimusertib (BAY189344, NSC800525), ceralasertib (AZD6738, NSC777638), TAK-243 (NSC785004), alisertib (NSC759677), etoposide (NSC141540), topotecan (NSC609699), eribulin (NSC707389), gemcitabine (NSC613327), carboplatin (NSC241240), cisplatin (NSC119875), and SN-38 (NSC673596) were obtained from the National Cancer Institute (NCI) Developmental Therapeutics Program Chemical Repository (32). The FDA-approved anticancer drug set is available from the Developmental Therapeutics Program at https://dtp.cancer.gov/organization/dscb/obtaining/available plates.htm. […] The stock solutions were prepared in dimethyl sulfoxide (DMSO, Sigma-Aldrich, St. Louis, MO, cat. D2650), except for the platinum compounds which were prepared in saline (Quality Biological, Gaithersburg, MD, cat. 114-055-101), at 800-fold the tested concentration and stored at -70 degrees C prior to their use. All drugs and investigational agents were tested over a range starting from a high concentration at or near the clinical Cmax and decreasing in half-log increments. If the clinical Cmax for an agent had not been determined, the highest concentration tested was 10 microM (Table 1).
Cell Culture. All cells were maintained in an incubator at 37 degrees C and 5% CO2 with 95% humidity. The PDC lines were cultured according to standard operating procedures established by the NCI PDMR (https://pdmr.cancer.gov). Briefly, all PDCs were thawed and cultured in Matrigel-coated flasks prepared with a working solution of 1X Ham's F-12 nutrient mix, without supplementation (Invitrogen, Waltham, MA, cat. 11765054), 100 U/mL penicillin-streptomycin (Invitrogen, cat. 15140122), and 2.5% Matrigel (Corning Inc., Corning, NY, cat. 354248) for the first three passages. All PDCs were cultured in complete DMEM/F-12 media containing advanced DMEM/F-12 (Invitrogen, cat. 12634028), 4.9% defined fetal bovine serum, heat inactivated (HyClone Laboratories Inc., Logan, UT, cat. SH30070.03HI), 389 ng/mL hydrocortisone (Sigma-Aldrich, cat. H4001), 9.7 ng/mL human EGF recombinant protein (Invitrogen, cat. PHG0313), 23.4 microg/mL adenine (Sigma-Aldrich, cat. A2786), 97.3 U/mL penicillin-streptomycin (Invitrogen, cat. 15140122), 1.9 mM L-glutamine (Invitrogen, cat. 25030081), and 9.7 microM Y-27632 dihydrochloride (Tocris Bioscience, Bristol, United Kingdom, cat. 1254). The PDCs were cultured in complete DMEM/F12 media without 10 microM Y-27632 dihydrochloride for at least two passages prior to the screen. The established cell lines NCI-H1341 and […] were cultured in DMEM/F-12, HEPES (Invitrogen, cat. 11330032), 5% defined fetal bovine serum (HyClone Laboratories Inc., cat. SH30070.03), ITS premix universal culture supplement [insulin (5 microg/mL), transferrin (5 microg/mL), and selenious acid (5 ng/mL)] […]
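Note: spheroids exposed to agents for seven days before reading.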

CCc1c2c(nc3ccc(O)cc13)-c1cc3c(c(=O)n1C2)COC(=O)[C@]3(O)CC + Cc1cncc(-c2nc(NCCc3c[nH]c4ccccc34)c3ncn(C(C)C)c3n2)c1
IC50 (curve of first compound, second compound 0.1 µM): > 300 nM
IC50 (curve of first compound, second compound 0.316 µM): > 300 nM
IC50 (curve of first compound, second compound 1 µM): > 300 nM
IC50 (curve of first compound, second compound 3.16 µM): > 300 nM
IC50 (curve of first compound, second compound 10 µM): < 0.949 nM
viability, T/C (second compound 0.1 µM, first compound 0.000949 µM): 97%
viability, T/C (second compound 0.1 µM, first compound 0.003 µM): 99.5%
viability, T/C (second compound 0.1 µM, first compound 0.00949 µM): 77.6%
viability, T/C (second compound 0.1 µM, first compound 0.03 µM): 77.5%
viability, T/C (second compound 0.1 µM, first compound 0.0949 µM): 71.1%
viability, T/C (second compound 0.1 µM, first compound 0.3 µM): 91.8%
viability, T/C (second compound 0.316 µM, first compound 0.000949 µM): 101%
viability, T/C (second compound 0.316 µM, first compound 0.003 µM): 89.9%
viability, T/C (second compound 0.316 µM, first compound 0.00949 µM): 71.9%
viability, T/C (second compound 0.316 µM, first compound 0.03 µM): 67.2%
viability, T/C (second compound 0.316 µM, first compound 0.0949 µM): 66.4%
viability, T/C (second compound 0.316 µM, first compound 0.3 µM): 67.6%
viability, T/C (second compound 1 µM, first compound 0.000949 µM): 86.4%
viability, T/C (second compound 1 µM, first compound 0.003 µM): 89.1%
viability, T/C (second compound 1 µM, first compound 0.00949 µM): 70%
viability, T/C (second compound 1 µM, first compound 0.03 µM): 81%
viability, T/C (second compound 1 µM, first compound 0.0949 µM): 94.3%
viability, T/C (second compound 1 µM, first compound 0.3 µM): 64.3%
viability, T/C (second compound 3.16 µM, first compound 0.000949 µM): 90%
viability, T/C (second compound 3.16 µM, first compound 0.003 µM): 96.2%
viability, T/C (second compound 3.16 µM, first compound 0.00949 µM): 72.3%
viability, T/C (second compound 3.16 µM, first compound 0.03 µM): 86.1%
viability, T/C (second compound 3.16 µM, first compound 0.0949 µM): 70%
viability, T/C (second compound 3.16 µM, first compound 0.3 µM): 65.3%
viability, T/C (second compound 10 µM, first compound 0.000949 µM): 10.4%
viability, T/C (second compound 10 µM, first compound 0.003 µM): 13.7%
viability, T/C (second compound 10 µM, first compound 0.00949 µM): 21.5%
viability, T/C (second compound 10 µM, first compound 0.03 µM): 17%
viability, T/C (second compound 10 µM, first compound 0.0949 µM): 9.13%
viability, T/C (second compound 10 µM, first compound 0.3 µM): 7.22%

Cn1ncnc1C1c2n[nH]c(=O)c3cc(F)cc(c23)NC1c1ccc(F)cc1 (configuration not stated)
viability, T/C (compound 0.000316 µM): 97.9% and 96.7% and 93.9%
viability, T/C (compound 0.001 µM): 108% (2×) and 81%
viability, T/C (compound 0.00316 µM): 108% and 106% and 97.9%
viability, T/C (compound 0.01 µM): 102% and 109% and 99.2%
viability, T/C (compound 0.0316 µM): 92.5% and 107% and 103%
viability, T/C (compound 0.1 µM): 96.4% and 91.3% and 92.3%
IC50 (curve of compound): > 100 nM
